Test results reported in the supplement of paper PMC4862054.

Each compound was assayed on BT-474 (assay: normalised response (% of control), CellTox Green; higher = less cell death (100 = DMSO, 0 = benzethonium chloride kill control)). Conditions: incubation time: 72 h.
Outline: (§1)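 Each value is the plate-normalised signal at one concentration of the series. Breast cancer cell lines (20 µl suspension) were incubated 72 h in 384-well plates with compound at 5 concentrations in 10-fold steps over a compound-specific 10,000-fold range. CellTox Green and then CellTiter-Glo were read, and each plate was scaled to 0.1 % DMSO (100) and a positive kill control (0).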

Structure (SMILES) | normalised response [%]
Cc1[nH]c2ccccc2c1CCNCc1ccc(/C=C/C(=O)NO)cc1 [Panobinostat] (10 nM) | 75.8
COCC1(CO)C(=O)C2CCN1CC2 (configuration not stated) [Prima-1 Met] (100 nM) | 101

Each compound was assayed on DU-4475 in the same assay as above. Conditions: incubation time: 72 h.
Outline: as §1

Structure (SMILES) | normalised response [%]
CCn1c(-c2nonc2N)nc2cnc(Oc3cccc(NC(=O)c4ccc(OCCN5CCOCC5)cc4)c3)cc21 (100 nM) | 100
CNC(=O)c1ccc(N2C(=S)N(c3ccc(C#N)c(C(F)(F)F)c3)C(=O)C2(C)C)cc1F [Enzalutamide] (100 nM) | 107
C=C1C[C@@H]2[C@H](CC[C@]3(C)C(=O)CC[C@@H]23)[C@@]2(C)C=CC(=O)C=C12 [Exemestane] (100 nM) | 109
Cc1cc(Nc2cc(CN3CCOCC3)c3nc(C)c(Cc4ccc(Cl)cc4F)n3n2)n[nH]1 [Gandotinib] (100 nM) | 99.2
NC(=O)c1ccc(I)c([N+](=O)[O-])c1 [Iniparib] (100 nM) | 94.2
CCc1c2c(nc3ccc(OC(=O)N4CCC(N5CCCCC5)CC4)cc13)-c1cc3c(c(=O)n1C2)COC(=O)[C@]3(O)CC [Irinotecan] (100 nM) | 101
O=C(Nc1cccnc1)N1CCC(Cc2cccc(Oc3ccc(C(F)(F)F)cn3)c2)CC1 [PF-3845] (100 nM) | 107
Cc1[nH]c2ccccc2c1CCNCc1ccc(/C=C/C(=O)NO)cc1 [Panobinostat] (10 nM) | 95.4
COCC1(CO)C(=O)C2CCN1CC2 (configuration not stated) [Prima-1 Met] (100 nM) | 101

Each compound was assayed on MDA-MB-453 in the same assay as above. Conditions: incubation time: 72 h.
Outline: as §1

Structure (SMILES) | normalised response [%]
CCn1c(-c2nonc2N)nc2cnc(Oc3cccc(NC(=O)c4ccc(OCCN5CCOCC5)cc4)c3)cc21 (100 nM) | 101
CNC(=O)c1ccc(N2C(=S)N(c3ccc(C#N)c(C(F)(F)F)c3)C(=O)C2(C)C)cc1F [Enzalutamide] (100 nM) | 106
C=C1C[C@@H]2[C@H](CC[C@]3(C)C(=O)CC[C@@H]23)[C@@]2(C)C=CC(=O)C=C12 [Exemestane] (100 nM) | 108
Cc1cc(Nc2cc(CN3CCOCC3)c3nc(C)c(Cc4ccc(Cl)cc4F)n3n2)n[nH]1 [Gandotinib] (100 nM) | 102
NC(=O)c1ccc(I)c([N+](=O)[O-])c1 [Iniparib] (100 nM) | 99.1
CCc1c2c(nc3ccc(OC(=O)N4CCC(N5CCCCC5)CC4)cc13)-c1cc3c(c(=O)n1C2)COC(=O)[C@]3(O)CC [Irinotecan] (100 nM) | 102
O=C(Nc1cccnc1)N1CCC(Cc2cccc(Oc3ccc(C(F)(F)F)cn3)c2)CC1 [PF-3845] (100 nM) | 104
Cc1[nH]c2ccccc2c1CCNCc1ccc(/C=C/C(=O)NO)cc1 [Panobinostat] (10 nM) | 81.9
COCC1(CO)C(=O)C2CCN1CC2 (configuration not stated) [Prima-1 Met] (100 nM) | 102

Each compound was assayed on Hs578T in the same assay as above. Conditions: incubation time: 72 h.
Outline: as §1

Structure (SMILES) | normalised response [%]
CCn1c(-c2nonc2N)nc2cnc(Oc3cccc(NC(=O)c4ccc(OCCN5CCOCC5)cc4)c3)cc21 (100 nM) | 66.9
CNC(=O)c1ccc(N2C(=S)N(c3ccc(C#N)c(C(F)(F)F)c3)C(=O)C2(C)C)cc1F [Enzalutamide] (100 nM) | 95.1
C=C1C[C@@H]2[C@H](CC[C@]3(C)C(=O)CC[C@@H]23)[C@@]2(C)C=CC(=O)C=C12 [Exemestane] (100 nM) | 86.8
Cc1cc(Nc2cc(CN3CCOCC3)c3nc(C)c(Cc4ccc(Cl)cc4F)n3n2)n[nH]1 [Gandotinib] (100 nM) | 72
NC(=O)c1ccc(I)c([N+](=O)[O-])c1 [Iniparib] (100 nM) | 94.2
CCc1c2c(nc3ccc(OC(=O)N4CCC(N5CCCCC5)CC4)cc13)-c1cc3c(c(=O)n1C2)COC(=O)[C@]3(O)CC [Irinotecan] (100 nM) | 77.4
O=C(Nc1cccnc1)N1CCC(Cc2cccc(Oc3ccc(C(F)(F)F)cn3)c2)CC1 [PF-3845] (100 nM) | 87.9
Cc1[nH]c2ccccc2c1CCNCc1ccc(/C=C/C(=O)NO)cc1 [Panobinostat] (10 nM) | 106
COCC1(CO)C(=O)C2CCN1CC2 (configuration not stated) [Prima-1 Met] (100 nM) | 104

Each compound was assayed on CAL-85-1 in the same assay as above. Conditions: incubation time: 72 h.
Outline: as §1

Structure (SMILES) | normalised response [%]
CCn1c(-c2nonc2N)nc2cnc(Oc3cccc(NC(=O)c4ccc(OCCN5CCOCC5)cc4)c3)cc21 (100 nM) | 98.3
CNC(=O)c1ccc(N2C(=S)N(c3ccc(C#N)c(C(F)(F)F)c3)C(=O)C2(C)C)cc1F [Enzalutamide] (100 nM) | 117
C=C1C[C@@H]2[C@H](CC[C@]3(C)C(=O)CC[C@@H]23)[C@@]2(C)C=CC(=O)C=C12 [Exemestane] (100 nM) | 101
Cc1cc(Nc2cc(CN3CCOCC3)c3nc(C)c(Cc4ccc(Cl)cc4F)n3n2)n[nH]1 [Gandotinib] (100 nM) | 95
NC(=O)c1ccc(I)c([N+](=O)[O-])c1 [Iniparib] (100 nM) | 103
CCc1c2c(nc3ccc(OC(=O)N4CCC(N5CCCCC5)CC4)cc13)-c1cc3c(c(=O)n1C2)COC(=O)[C@]3(O)CC [Irinotecan] (100 nM) | 94.9
O=C(Nc1cccnc1)N1CCC(Cc2cccc(Oc3ccc(C(F)(F)F)cn3)c2)CC1 [PF-3845] (100 nM) | 97.5
Cc1[nH]c2ccccc2c1CCNCc1ccc(/C=C/C(=O)NO)cc1 [Panobinostat] (10 nM) | 89.9
COCC1(CO)C(=O)C2CCN1CC2 (configuration not stated) [Prima-1 Met] (100 nM) | 95.6

Each compound was assayed on HDQ-P1 (assay: normalised response (% of control), CellTiter-Glo; higher = more viable cells (100 = DMSO, 0 = benzethonium chloride kill control)). Conditions: incubation time: 72 h.
Protocol: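 DSRT, 72 h incubation, CellTox Green / CellTiter-Glo readout. Signal is normalised to DMSO and benzethonium chloride controls. Value is the normalised response at dose 3.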

Structure (SMILES) | normalised response [%]
CCn1c(-c2nonc2N)nc2cnc(Oc3cccc(NC(=O)c4ccc(OCCN5CCOCC5)cc4)c3)cc21 (100 nM) | 99.6
CNC(=O)c1ccc(N2C(=S)N(c3ccc(C#N)c(C(F)(F)F)c3)C(=O)C2(C)C)cc1F [Enzalutamide] (100 nM) | 97.4
C=C1C[C@@H]2[C@H](CC[C@]3(C)C(=O)CC[C@@H]23)[C@@]2(C)C=CC(=O)C=C12 [Exemestane] (100 nM) | 102
Cc1cc(Nc2cc(CN3CCOCC3)c3nc(C)c(Cc4ccc(Cl)cc4F)n3n2)n[nH]1 [Gandotinib] (100 nM) | 110
